ChEMBL document CHEMBL1139043, “Carbonic anhydrase inhibitors. Inhibition studies of the human secretory isoform VI with anions” (Bioorg Med Chem Lett, 2007)

Target: Carbonic anhydrase 6 (Homo sapiens) (UniProt P23280)
Sequence (P23280 whole entry): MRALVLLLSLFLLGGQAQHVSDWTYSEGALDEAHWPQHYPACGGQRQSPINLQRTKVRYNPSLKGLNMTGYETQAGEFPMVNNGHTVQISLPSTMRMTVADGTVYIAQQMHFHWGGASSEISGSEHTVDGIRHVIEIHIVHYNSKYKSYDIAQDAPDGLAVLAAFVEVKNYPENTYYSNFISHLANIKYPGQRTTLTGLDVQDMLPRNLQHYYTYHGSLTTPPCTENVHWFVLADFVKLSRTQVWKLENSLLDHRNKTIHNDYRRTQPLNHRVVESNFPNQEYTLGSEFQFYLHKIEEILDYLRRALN
Description: Inhibition of full length human recombinant full length CA6 expressed in Escherichia coli BL21 by CO2 hydration method

NS(=O)(=O)O
Kinact: 0.09 mM

O=[As](O)(O)c1ccccc1
Kinact: 13.9 mM
